Reference: patent US7223787B2, “Prenylation inhibitors reduce host cell permissiveness to viral replication” (priority 2003, dated 2007)

Columns and labels:
HCV replicon RNA = settings: hepatoma cells, recent studies (ref. 23); cited from earlier work
HCV RNA replication [1] = assay: HCV RNA replicon levels in Huh7-K2040 cells (subgenomic replicon); settings: for viral RNA levels (effect in words): 24-hour culture period; for rescue of HCV RNA levels from the suppressive action of lovastatin: lovastatin-treated Huh7-K2040 cells supplemented with the metabolite, 24-hour culture
Rap1a = assay: SDS-PAGE and blot of Rap1a prenylation in Huh7-K2040 cells; type: cell-based, human
[2] = test system: HCV replication complex (NS5A); assay: Immunocytochemical NS5A staining of the HCV replication complex; type: cell-based, hepatitis C virus
Excerpt: HCV Replication Complex Requires Protein Geranylgeranylation. Among other functions, geranylgeranylated proteins mediate the interaction of membranes with cytoskeletal proteins (8). Such interactions are likely to be required for the formation of the ER-associated HCV replication complex, which contains the viral RNA as well as the nonstructural viral proteins (1, 2). […] To test whether lovastatin affects the replication complex, we stained cells with an antibody to NS5A and an FITC-labeled second antibody. In the absence of lovastatin treatment, much of the NS5A was localized in a punctate pattern consistent with the ER localization of the HCV replication complex.

H-Ras(S189L) = assay: Prenylation of mutant H-Ras(S189L), substrate for GGTase I (blot); type: cell-based; settings: 10 μM
Excerpt: (§1) In contrast, FPTI-III had no effect on viral RNA levels. To confirm the specificity of GGTI-286 and FPTI-III action, we evaluated the effect of each compound on the prenylation of wild-type H-Ras, which is normally farnesylated, and a mutant H-Ras(S189L) in which the carboxyl-terminal amino acid has been changed to leucine, making it a substrate for GGTase 1 (21). […] Thus, the inhibitory activity of GGTI-286 on HCV RNA replication must be due to its action against GGTase I, and not farnesyl transferase.

H-Ras = assay: Prenylation of wild-type H-Ras (blot); type: cell-based; settings: 10 μM
Excerpt: as §1

Huh7-K2040 cells [3] = settings: for cellular DNA synthesis / cellular mRNA synthesis / levels: 24 hours
Excerpt: (§2) We therefore examined the influence of lovastatin upon the synthesis of DNA, mRNA, and protein in Huh7-K2040 cells.

HCV RNA replication [4] = assay: HCV RNA replicon levels in Huh7-HP cells (subgenomic replicon)
Huh7-K2040 cells [5] = assay: Cell viability of treated cultures; settings: cultures treated over 7 days, at the concentrations used
Excerpt: as §2

West Nile virus [6] = assay: WN virus replication in mammalian cell types; type: cell-based; settings: several mammalian cell types
Protocol: Cells and virus. Vero (ATCC CCL-81) cells are grown in minimal essential medium (MEM) supplemented with 10% fetal bovine serum (FBS). BHK-21/WI2 (BHK-21) and Aedes albopictus C6/36 (C6/36) (ATCC CRL-1660) cells are grown in Dulbecco's modification of MEM with 10% FBS and 0.1 mM nonessential amino acids. Antibiotics are added to all media at 10 U/ml of penicillin and 10 μg/ml of streptomycin. Cells are maintained in 5% CO2 at 37° C. (Vero and BHK-21) or 28° C. (C6/36). West Nile viruses are obtained from the World Arbovirus Reference Collection and stocks are grown and plaque titrated in Vero cells. Prenylation inhibitors examined over a series of 10-fold dilutions.
IFA. Indirect immunofluorescence assays (IFA) are used to detect viral protein expression in WNV RNA-transfected BHK-21 cells. After electroporation, approximately 10^5 transfected cells are spotted onto 10-mm glass coverslips. Cells on coverslips are analyzed by IFA at various times posttransfection for viral protein synthesis. […] The coverslips are washed with PBS, mounted to a slide using fluorescent mounting medium (KPL), and observed under a fluorescence microscope equipped with a video documentation system (Zeiss, Thornwood, N.Y.).
Specific infectivity assay. […] Plaques are counted after incubation of the plates for another 12 to 24 h, and the specific infectivity is calculated as the number of PFU per microgram of RNA. […]

West Nile virus [7] = assay: WN virus replication in a mouse model; type: in vivo
Excerpt: Virulence in mice. Mice are housed in an environmentally controlled room under biosafety level 3 conditions and are given food and water ad libitum. Female outbred CD-1 mice (Charles River Laboratories, Wilmington, Mass.) are obtained at 5 weeks of age and acclimatized for 1 week. All mice are 6 weeks of age at the start of the experiment. Eight mice per group are inoculated with diluent alone or with 10^2 PFU of virus subcutaneously (s.c.) in the left rear footpad. Diluent is PBS (endotoxin-free) supplemented with 1% FBS. Mice are evaluated clinically and weighed daily for 2 weeks, then monitored daily and weighed thrice weekly for 2 more weeks. Observed clinical signs include ruffled fur, paresis, hindleg paralysis, and tremors. Morbidity is defined as exhibition of greater than 10% weight loss or clinical signs for 2 or more days. Mice are euthanized if they become moribund.

HCV RNA replication [8] = assay: HCV RNA replicon levels in Huh7-C5B3 cells (genome-length replicon)

C[C@H](CCCC(C)(C)O)[C@H]1CC[C@H]2[C@@H]3CC=C4C[C@@H](O)CC[C@]4(C)[C@H]3CC[C@]12C [25-hydroxycholesterol]
level of HCV replicon RNA (HCV replicon RNA): reduce the level of HCV replicon RNA

COC(=O)[C@H](CC(C)C)NC(=O)c1ccc(NC[C@@H](N)CS)cc1-c1ccccc1 [GGTI-286]
level of HCV RNA (HCV RNA replication [1]; Huh7-K2040 cells, increasing concentrations of inhibitor): dose-dependent decrease | prenylation of endogenous Rap1a (Rap1a; 10 μM): clear-cut inhibitory effects | redistribution of HCV NS5A protein from punctate to diffuse pattern [2]: produced a redistribution | prenylation (geranylgeranylation) of H-Ras(S189L) (H-Ras(S189L)): inhibiting farnesylation of H-Ras as well as geranylgeranylation of H-Ras(S189L) | prenylation (farnesylation) of wild-type H-Ras (H-Ras): inhibiting farnesylation of H-Ras

C[C@@]1(CO)[C@H](O)CC[C@@]2(C)[C@H]1CC[C@H]1C[C@@H]3C[C@@]12CC[C@]3(O)CO [aphidicolin]
viral RNA levels (effect in words) (HCV RNA replication [1]; Huh7-K2040 cells): did not affect | global rate of cellular protein synthesis (Huh7-K2040 cells [3]): moderately suppressed | cellular DNA synthesis (Huh7-K2040 cells [3]): blocked DNA synthesis | cellular mRNA synthesis / levels (Huh7-K2040 cells [3]): did not affect

CC(C)=CCCC(C)=CCCC(C)=CCO [farnesol]
rescue of HCV RNA levels from the suppressive action of lovastatin (HCV RNA replication [1]): neither farnesol nor oleate, mediated a dose-dependent rescue

CC(C)=CCC/C(C)=C/CC/C(C)=C/CC/C(C)=C/CO [geranylgeraniol]
rescue of HCV RNA levels from the suppressive action of lovastatin (HCV RNA replication [1]): mediated a dose-dependent rescue | restoration of Rap1a geranylgeranylation (Rap1a; added to lovastatin-treated Huh7-K2040 cells): eliminated the upper band | prevention of loss of punctate NS5A distribution ([2]; added to lovastatin-treated cells): prevented the loss of the punctate distribution

NC(=O)NO [hydroxyurea]
viral RNA levels (effect in words) (HCV RNA replication [1]; Huh7-K2040 cells): did not affect | global rate of cellular protein synthesis (Huh7-K2040 cells [3]): moderately suppressed | cellular DNA synthesis (Huh7-K2040 cells [3]): blocked DNA synthesis | cellular mRNA synthesis / levels (Huh7-K2040 cells [3]): did not affect

CC[C@H](C)C(=O)O[C@H]1C[C@@H](C)C=C2C=C[C@H](C)[C@H](CC[C@@H]3C[C@@H](O)CC(=O)O3)[C@H]21 [lovastatin]
reduction of HCV RNA levels (HCV RNA replication [1]; Huh7-K2040 cells, after 72 hours): more than 95% | reduction of HCV RNA levels (HCV RNA replication [1]; Huh7-K2040 cells, after a 24-hour treatment): more than 70% | viral protein levels (HCV RNA replication [1]; Huh7-K2040 cells, over a 72-hour culture period): reduction in viral protein levels | prenylation state of Rap1a (Rap1a; Huh7-K2040 cells): caused the appearance of a slow-migrating form | levels of viral proteins (HCV RNA replication [4]): reduced the levels of viral proteins | punctate NS5A staining pattern ([2]; treatment for 48 hours): largely disappeared | global rate of cellular protein synthesis (Huh7-K2040 cells [3]): moderately suppressed | cellular DNA synthesis (Huh7-K2040 cells [3]): did not significantly affect | cellular mRNA synthesis / levels (Huh7-K2040 cells [3]): did not significantly affect | cell viability (Huh7-K2040 cells [5]): no significant effects | WN virus replication (West Nile virus [6]): disrupted | WN virus replication (West Nile virus [7]): disrupted | levels of viral proteins (HCV RNA replication [8]): reduced the levels of viral proteins

CC(O)(CCO)CC(=O)O (centres unmarked) [mevalonate]
rescue of HCV RNA levels from the suppressive action of lovastatin (HCV RNA replication [1]): dose-dependent rescue
